Source: BindingDB's records for doi:10.1016/0960-894X(96)00010-8 (1996)

Assay: Inhibition of voltage sensitive calcium channel of embryonic chick dorsal root ganglion (DRG) cells

In the case of `COc1ccc(OC)c(-n2c(N)nc3cc(C(F)(F)F)ccc32)c1` [1-(2,5-Dimethoxy-phenyl)-5-trifluoromethyl-1H-benzoimidazol-2-ylamine], the IC50 is reported as 32 µM.
